The text below walks through data of ChEMBL document CHEMBL1135703, “Synthesis and biological activity of a novel class of small molecular weight peptidomimetic competitive inhibitors of protein tyrosine phosphatase 1B” (2002).

The target in assay [1] is T1, Tyrosine-protein phosphatase non-receptor type 11 (Mus musculus) (UniProt P35235).
T1 sequence (whole entry): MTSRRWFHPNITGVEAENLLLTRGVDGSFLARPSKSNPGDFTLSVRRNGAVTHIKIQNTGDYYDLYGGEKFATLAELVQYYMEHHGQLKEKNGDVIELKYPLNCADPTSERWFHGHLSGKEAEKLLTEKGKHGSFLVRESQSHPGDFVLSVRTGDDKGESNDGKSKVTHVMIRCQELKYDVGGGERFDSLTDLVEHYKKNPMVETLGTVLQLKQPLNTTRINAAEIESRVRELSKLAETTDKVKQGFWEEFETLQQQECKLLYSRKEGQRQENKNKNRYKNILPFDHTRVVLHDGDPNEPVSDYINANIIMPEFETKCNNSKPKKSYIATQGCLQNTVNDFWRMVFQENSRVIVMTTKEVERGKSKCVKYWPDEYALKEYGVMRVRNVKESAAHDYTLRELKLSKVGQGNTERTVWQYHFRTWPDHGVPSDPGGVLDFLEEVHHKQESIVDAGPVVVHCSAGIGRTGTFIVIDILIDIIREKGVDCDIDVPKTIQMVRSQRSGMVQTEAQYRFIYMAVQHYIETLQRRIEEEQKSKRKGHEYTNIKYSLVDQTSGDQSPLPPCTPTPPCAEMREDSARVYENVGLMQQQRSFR
The assay can be described thus: Percent inhibition of Tyrosine phosphatase SHP2 SH2 domain containing PTP involved in insulin uM. The arrangement: concentration or dose not given beside the values. Particulars: concentration not given here.

For assay [2], the target named is T2, Tyrosine-protein phosphatase non-receptor type 1 (Rattus norvegicus) (UniProt P20417).
T2 sequence (whole entry): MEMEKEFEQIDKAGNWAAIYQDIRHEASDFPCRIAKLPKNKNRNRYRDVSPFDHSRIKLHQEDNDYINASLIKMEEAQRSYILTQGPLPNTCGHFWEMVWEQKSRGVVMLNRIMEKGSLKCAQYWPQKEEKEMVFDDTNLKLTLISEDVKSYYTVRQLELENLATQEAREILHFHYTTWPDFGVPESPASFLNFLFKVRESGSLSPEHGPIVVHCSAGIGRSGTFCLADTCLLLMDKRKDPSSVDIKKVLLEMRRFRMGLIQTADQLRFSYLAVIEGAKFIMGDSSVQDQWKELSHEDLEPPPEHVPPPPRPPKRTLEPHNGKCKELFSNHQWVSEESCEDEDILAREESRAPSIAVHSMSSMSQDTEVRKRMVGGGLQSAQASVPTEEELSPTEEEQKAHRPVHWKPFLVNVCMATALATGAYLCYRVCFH
The assay can be described thus: Percent inhibition of Protein-tyrosine phosphatase 1 (PTP) assayed at 100 uM.

In assay [3] the target is Receptor-type tyrosine-protein phosphatase F (Homo sapiens) (UniProt P10586). The assay can be described thus: Percent inhibition of Protein-tyrosine phosphatase Lar assayed at 100 uM.
Receptor-type tyrosine-protein phosphatase F (Homo sapiens), sequence (P10586 whole entry): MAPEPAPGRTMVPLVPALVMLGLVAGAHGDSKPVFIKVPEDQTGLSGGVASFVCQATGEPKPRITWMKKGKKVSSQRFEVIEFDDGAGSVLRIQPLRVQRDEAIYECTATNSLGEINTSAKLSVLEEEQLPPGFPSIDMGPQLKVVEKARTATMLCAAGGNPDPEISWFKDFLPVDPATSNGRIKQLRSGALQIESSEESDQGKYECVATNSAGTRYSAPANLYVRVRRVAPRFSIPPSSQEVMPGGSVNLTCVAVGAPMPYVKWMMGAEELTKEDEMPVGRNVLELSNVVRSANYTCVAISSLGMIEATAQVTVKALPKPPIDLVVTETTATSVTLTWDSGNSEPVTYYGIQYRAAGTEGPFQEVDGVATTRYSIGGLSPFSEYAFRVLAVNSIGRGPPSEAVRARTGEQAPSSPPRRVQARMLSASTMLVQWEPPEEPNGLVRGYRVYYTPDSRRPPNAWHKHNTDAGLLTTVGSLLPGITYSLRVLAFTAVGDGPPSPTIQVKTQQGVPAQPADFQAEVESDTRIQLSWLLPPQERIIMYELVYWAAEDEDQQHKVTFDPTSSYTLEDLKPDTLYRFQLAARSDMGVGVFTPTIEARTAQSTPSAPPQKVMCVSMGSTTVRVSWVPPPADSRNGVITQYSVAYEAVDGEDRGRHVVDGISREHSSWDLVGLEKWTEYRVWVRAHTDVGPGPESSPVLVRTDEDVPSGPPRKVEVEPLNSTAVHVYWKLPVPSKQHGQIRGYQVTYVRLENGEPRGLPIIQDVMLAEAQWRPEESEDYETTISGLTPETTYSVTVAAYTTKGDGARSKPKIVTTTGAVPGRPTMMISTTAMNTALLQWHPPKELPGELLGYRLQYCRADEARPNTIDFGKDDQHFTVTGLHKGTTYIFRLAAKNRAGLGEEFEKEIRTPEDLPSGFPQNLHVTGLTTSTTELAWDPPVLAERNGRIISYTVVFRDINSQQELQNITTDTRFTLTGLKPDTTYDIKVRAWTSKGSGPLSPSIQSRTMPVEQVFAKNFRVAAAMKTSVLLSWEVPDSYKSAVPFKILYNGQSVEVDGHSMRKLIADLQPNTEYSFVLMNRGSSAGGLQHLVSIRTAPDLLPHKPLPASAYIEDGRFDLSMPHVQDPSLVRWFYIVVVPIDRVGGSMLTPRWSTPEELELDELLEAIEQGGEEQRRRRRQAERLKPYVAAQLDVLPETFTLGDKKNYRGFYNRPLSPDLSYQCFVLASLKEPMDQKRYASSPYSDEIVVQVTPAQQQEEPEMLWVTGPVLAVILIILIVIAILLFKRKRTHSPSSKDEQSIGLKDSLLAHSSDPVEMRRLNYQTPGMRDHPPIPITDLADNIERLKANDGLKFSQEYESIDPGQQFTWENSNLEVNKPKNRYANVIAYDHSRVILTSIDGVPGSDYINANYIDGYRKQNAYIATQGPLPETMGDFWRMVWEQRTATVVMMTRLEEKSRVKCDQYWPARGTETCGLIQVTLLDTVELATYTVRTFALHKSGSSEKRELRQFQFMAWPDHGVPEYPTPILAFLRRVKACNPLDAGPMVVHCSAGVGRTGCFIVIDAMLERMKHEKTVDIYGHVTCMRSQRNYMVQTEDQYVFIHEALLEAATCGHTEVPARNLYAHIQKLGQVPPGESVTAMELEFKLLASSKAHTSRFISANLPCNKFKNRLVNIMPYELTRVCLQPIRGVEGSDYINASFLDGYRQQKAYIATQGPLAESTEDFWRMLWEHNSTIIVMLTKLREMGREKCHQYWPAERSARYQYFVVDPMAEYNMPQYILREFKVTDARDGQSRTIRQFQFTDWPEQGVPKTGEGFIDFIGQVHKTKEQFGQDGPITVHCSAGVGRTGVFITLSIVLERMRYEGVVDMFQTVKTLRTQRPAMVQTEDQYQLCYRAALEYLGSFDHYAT

Regarding `CCCCCNC(=O)C(Cc1ccc(OC(C(=O)O)C(=O)O)cc1)NC(=O)[C@H](Cc1ccc(C(=O)c2ccccc2)cc1)NC(=O)OC(C)(C)C` (stereo partly specified), the inhibition in assay [1] amounted to 11%; in assay [2], 91%; in assay [3] it was 24%.
With `CCCCCNC(=O)C(Cc1ccc(CC(C(=O)O)C(=O)O)cc1)NC(=O)CCC(=O)O` (stereo unspecified), the inhibition was determined as 3% in assay [1], 34% in assay [2] and 3% in assay [3].
Turning to `CCCCCNC(=O)C(Cc1ccc(OC(C(=O)O)C(=O)O)cc1)NC(=O)[C@H]1CCCC[C@@H]1C(=O)O` (stereo partly specified), the figures for the inhibition in assay [1], in assay [2] and in assay [3] were 10%, 72% and 7%, respectively.
In the case of `O=C(O)CCC(=O)NC(Cc1ccc(OC(C(=O)O)C(=O)O)cc1)C(=O)NCc1ccc2c(c1)OCO2` (stereo unspecified), the inhibition came to 12% in assay [1], 63% in assay [2] and 6% in assay [3].
For `O=C(O)CCC(=O)NC(Cc1ccc(OC(C(=O)O)C(=O)O)cc1)C(=O)NCc1ccc(C(=O)O)cc1` (stereo unspecified) the same measures were 58%, 56% and 2%.
`CCCCCNC(=O)C(Cc1ccc(OC(CC(=O)O)C(=O)O)cc1)NC(=O)CCC(=O)O` (stereo unspecified): the inhibition in assay [1] stood at 4%; in assay [2] it was 34%.
`CCCCC(N)C(=O)NC(=O)C(Cc1ccc(OC(C(=O)O)C(=O)O)cc1)NC(=O)CCC(=O)O` (stereo unspecified): the inhibition in assay [1] was 48%; in assay [2], 93%; in assay [3], 4%.
The corresponding values for `CCCCCNC(=O)[C@@H](Cc1ccc(OC(C(=O)O)C(=O)O)cc1)NC(=O)CCC(=O)O` are 4%, 39% and 1%.
For `CCCCCNC(=O)C(Cc1ccc(O)c(C(=O)O)c1)NC(=O)CCC(=O)O` (stereo unspecified) the same measures were 3%, 0% and 0%.
For `O=C(O)CCC(=O)NC(Cc1ccc(OC(C(=O)O)C(=O)O)cc1)C(=O)NCc1cccc2ccccc12` (stereo unspecified) the same measures were 12%, 61% and 10%.
For the compound `CCCCCNC(=O)C(Cc1ccc(OC(C(=O)O)C(=O)O)c(F)c1)NC(=O)CCC(=O)O` (stereo unspecified), the results for the inhibition in assay [1], in assay [2] and in assay [3] were 9%, 78% and 4%, respectively.
For `O=C(O)CCC(=O)NC(Cc1ccc(OC(C(=O)O)C(=O)O)cc1)C(=O)NCc1ccc(C(F)(F)F)cc1` (stereo unspecified) the same measures were 15%, 66% and 4%.
The corresponding values for `CCCCCNC(=O)C(Cc1ccc(OC(C(=O)O)C(=O)O)cc1)NC(=O)C1C2CCC(C2)[C@@H]1C(=O)O` (stereo partly specified) are 5%, 37% and 8%.
For `CCCCCCNC(=O)C(Cc1ccc(OC(C(=O)O)C(=O)O)cc1)NC(=O)CCC(=O)O` (stereo unspecified) the same measures were 8%, 74% and 5%.
Consider `CCCCCNC(=O)C(Cc1ccc(OC(C(=O)O)C(=O)O)cc1)NC(=O)[C@H](CCC(=O)O)NC(=O)CCC(=O)O` (stereo partly specified), for which the figures for the inhibition in assay [1], in assay [2] and in assay [3] were 28%, 96% and 10%, respectively.
As for `CCCCCNC(=O)C(Cc1ccc(OC(C(=O)OCC)C(=O)OCC)cc1)NC(=O)CCC(=O)O` (stereo unspecified), the inhibition in assay [1] amounted to 0%; in assay [2] it was 1%.
With `CCCCCNC(=O)C(Cc1ccc(OCC(=O)O)cc1)NC(=O)CCC(=O)O` (stereo unspecified), the results for the inhibition in assay [1], in assay [2] and in assay [3] were 0%, 14% and 0%, respectively.
Turning to `CCCCCNC(=O)C(Cc1ccc(OC(C(=O)O)C(=O)O)cc1)NC(=O)[C@H](Cc1ccc(OCc2ccccc2)cc1)NC(=O)CCC(=O)O` (stereo partly specified), the inhibition turned out to be 33% in assay [1], 98% in assay [2] and 28% in assay [3].
For `CCCCCNC(=O)C(Cc1ccc(OC(C(=O)O)C(=O)O)cc1)NC(=O)CC(C)(C)CC(=O)O` (stereo unspecified) the same measures were 16%, 67% and 6%.
For the compound `CCCCCNC(=O)C(Cc1ccc(OS(=O)(=O)C(F)(F)F)cc1)NC(=O)CCC(=O)O` (stereo unspecified), the inhibition in assay [2] was determined as 0%.
On to `O=C(O)CCC(=O)NC(Cc1ccc(OC(C(=O)O)C(=O)O)cc1)C(=O)NCC1CCCCC1` (stereo unspecified), for which the inhibition in assay [1] came out at 12%; in assay [2], 73%; in assay [3], 5%.
The corresponding values for `CCCCCNC(=O)C(Cc1ccc(OC(C(=O)O)C(=O)O)cc1)NC(=O)[C@H](CC(=O)O)NC(=O)CCCCC` (stereo partly specified) are 37%, 91% and 10%.
The corresponding values for `NS(=O)(=O)c1ccc(CCNC(=O)C(Cc2ccc(OC(C(=O)O)C(=O)O)cc2)NC(=O)CCC(=O)O)cc1` (stereo unspecified) are 17%, 63% and 5%.
For `CCOC(CNC(=O)C(Cc1ccc(OC(C(=O)O)C(=O)O)cc1)NC(=O)CCC(=O)O)OCC` (stereo unspecified) the same measures were 11%, 46% and 3%.
Consider `CCCCCNC(=O)C(Cc1ccc(OC(=O)CC(=O)O)cc1)NC(=O)CCC(=O)O` (stereo unspecified), for which the inhibition was found to be 0% in assay [1] and 2% in assay [2].
Consider `CCCCCNC(=O)C(Cc1ccc(OC(C(=O)O)C(=O)O)cc1)NC(=O)[C@H](Cc1ccc(OC)cc1)NC(=O)CCC(=O)O` (stereo partly specified), for which the inhibition came out at 33% in assay [1], 98% in assay [2] and 22% in assay [3].
For `CCCCCNC(=O)C(Cc1ccc(OC(C(=O)O)C(=O)O)cc1)NC(=O)CC(=O)O` (stereo unspecified) the same measures were 13%, 74% and 7%.
For `CCCCCNC(=O)C(Cc1ccc(C=C(C(=O)O)C(=O)O)cc1)NC(=O)CCC(=O)O` (stereo unspecified) the same measures were 52%, 33% and 2%.
With `CC(C)CCNC(=O)C(Cc1ccc(OC(C(=O)O)C(=O)O)cc1)NC(=O)CCC(=O)O` (stereo unspecified), the inhibition in assay [1] is 7%; in assay [2] it was 48%; in assay [3] it was 5%.
For `CCCCCNC(=O)C(Cc1ccc(OC(C(=O)O)C(=O)O)cc1)NC(=O)[C@H](COc1ccc(Cc2cc(Cl)ccc2Cl)cc1)NC(=O)OC(C)(C)C` (stereo partly specified) the same measures were 45%, 85% and 27%.
The corresponding values for `CCCCCNC(=O)C(Cc1ccc(OC(C(=O)O)C(=O)O)c(F)c1F)NC(=O)CCC(=O)O` (stereo unspecified) are 23%, 85% and 12%.
In assay [2], `CCCCCNC(=O)C(Cc1ccc(OS(C)(=O)=O)cc1)NC(=O)CCC(=O)O` (stereo unspecified) displayed an inhibition of 0%.
Same read-out and setting: with `CCCCCNC(=O)C(Cc1ccc(OC(C(=O)O)C(=O)O)cc1)NC(=O)CCC(=O)OCc1ccccc1` (stereo unspecified) the figure was 39%.
On to `CCCCCNC(=O)C(Cc1ccc(O/C(=C/C(=O)O)C(=O)O)cc1)NC(=O)CCC(=O)O` (stereo unspecified), for which the inhibition in assay [1] was determined as 5%; in assay [2] it was 50%.
The corresponding values for `O=C(O)CCC(=O)NC(Cc1ccc(OC(C(=O)O)C(=O)O)cc1)C(=O)NCCN1CCCCC1` (stereo unspecified) are 1% and 23%.
In turn, `CCCCCNC(=O)C(Cc1ccc(OC(C(=O)O)C(=O)O)cc1)NC(=O)CCC(N)=O` (stereo unspecified) had an inhibition in assay [2] of 51%.
The same measure, in the same setting: as for `O=C(O)CCC(=O)NC(Cc1ccc(OC(C(=O)O)C(=O)O)cc1)C(=O)NCCc1ccc(O)cc1` (stereo unspecified), the figure is 43%.

Usually inhibition stands for the change of the read-out against control, counted positive when it falls.
